Data: the supplement of paper PMC10307832

Tests used:
Assay in all cases: relative viability (nuclei count vs DMSO), 5 days (fraction); higher = more cells survive
RO-3306 + Palbociclib = compound: C1=CC2=C(C=CC(=C2)C=C3C(=O)NC(=NCC4=CC=CS4)S3)N=C1 [RO-3306] + CC(=O)c1c(C)c2cnc(Nc3ccc(N4CCNCC4)cn3)nc2n(C2CCCC2)c1=O [Palbociclib] (partner 0.5 µM)
How it was run: (§1)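 Medians of duplicate plates are given as relative viability. That measure is the nuclei count in treated wells divided by the count in vehicle wells. Counts were taken on 4× images of lung cancer cell lines in 1536-well plates, 5 days after pin-tool dosing the day after seeding with one drug alone or a fixed anchor-drug dose plus five library-drug doses (not always all listed) in √10 steps.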

RO-3306 + Pictilisib = compound: C1=CC2=C(C=CC(=C2)C=C3C(=O)NC(=NCC4=CC=CS4)S3)N=C1 [RO-3306] + CS(=O)(=O)N1CCN(Cc2cc3nc(-c4cccc5[nH]ncc45)nc(N4CCOCC4)c3s2)CC1 [Pictilisib] (partner 1 µM)
How it was run: as §1

[1] = compound: O=S(=O)(c1ccccc1)N(CC(F)(F)F)c1ccc(C(O)(C(F)(F)F)C(F)(F)F)cc1 + Cc1nc(NC(=O)N2CCC[C@H]2C(N)=O)sc1-c1ccnc(C(C)(C)C(F)(F)F)c1 [Alpelisib] (partner 2 µM)
How it was run: as §1

[2] = compound: O=S(=O)(c1ccccc1)N(CC(F)(F)F)c1ccc(C(O)(C(F)(F)F)C(F)(F)F)cc1 + O=C(c1cc(Cc2n[nH]c(=O)c3ccccc23)ccc1F)N1CCN(C(=O)C2CC2)CC1 [Olaparib] (partner 8 µM)
How it was run: as §1

Row | Cell Line | relative viability (RO-3306 + Palbociclib; first compound 0.01 µM) | relative viability (RO-3306 + Palbociclib; first compound 0.03162 µM) | relative viability (RO-3306 + Palbociclib; first compound 0.1 µM) | relative viability (RO-3306 + Palbociclib; first compound 0.3162 µM) | relative viability (RO-3306 + Palbociclib; first compound 1 µM) | relative viability (RO-3306 + Pictilisib; first compound 0.01 µM) | relative viability (RO-3306 + Pictilisib; first compound 0.03162 µM) | relative viability (RO-3306 + Pictilisib; first compound 0.1 µM) | relative viability (RO-3306 + Pictilisib; first compound 0.3162 µM) | relative viability (RO-3306 + Pictilisib; first compound 1 µM) | relative viability ([1]; first compound 0.8 µM) | relative viability ([1]; first compound 2.53 µM) | relative viability ([1]; first compound 8 µM) | relative viability ([2]; first compound 0.8 µM) | relative viability ([2]; first compound 2.53 µM) | relative viability ([2]; first compound 8 µM)
1 | NCI-H647 | 0.486 | 0.325 | 0.355 | 0.474 | 0.446 | 0.326 | 0.464 | 0.401 | 0.454 | 0.299 | 1.25 | 1.01 | 1.35 | 0.667 | 0.418 | 0.6
2 | NCI-H650 | 0.32 | 0.325 | 0.332 | 0.328 | 0.293 | 0.983 | 0.928 | 0.792 | 0.777 | 0.916 | 1.13 | 1.03 | 1 | 0.405 | 0.387 | 0.359
3 | NCI-H661 | 0.421 | 0.45 | 0.394 | 0.386 | 0.383 | 0.41 | 0.377 | 0.356 | 0.392 | 0.363 | 0.752 | 0.681 | 1.02 | 0.774 | 0.779 | 0.768
4 | NCI-H727 | 0.623 | 0.613 | 0.552 | 0.557 | 0.604 | 0.355 | 0.356 | 0.438 | 0.319 | 0.41 | 0.549 | 0.465 | 0.489 | 0.657 | 0.706 | 0.704
5 | NCI-H838 | 0.228 | 0.211 | 0.254 | 0.254 | 0.193 | 0.411 | 0.34 | 0.432 | 0.505 | 0.393 | 1.12 | 0.923 | 1.07 | 0.937 | 0.736 | 0.86
6 | NCI-H1355 | 0.421 | 0.406 | 0.405 | 0.412 | 0.38 | 0.423 | 0.396 | 0.493 | 0.512 | 0.316 | 0.861 | 0.727 | 0.715 | 0.824 | 0.737 | 0.719
7 | NCI-H1395 | 0.696 | 0.678 | 0.58 | 0.641 | 0.558 | 0.589 | 0.911 | 0.547 | 0.644 | 0.753 | 0.936 | 1.02 | 1.29 | 0.409 | 0.458 | 0.467
8 | NCI-H1437 | 0.312 | 0.316 | 0.294 | 0.317 | 0.289 | 0.403 | 0.364 | 0.372 | 0.472 | 0.449 | 0.904 | 0.771 | 0.718 | 0.598 | 0.591 | 0.597
9 | NCI-H1651 | 0.542 | 0.456 | 0.505 | 0.538 | 0.496 | 0.598 | 0.359 | 0.574 | 0.601 | 0.634 | 0.94 | 0.972 | 0.89 | 0.178 | 0.206 | 0.176
10 | NCI-H1666 | 0.734 | 0.631 | 0.603 | 0.616 | 0.609 | 0.451 | 0.407 | 0.389 | 0.35 | 0.406 | 0.776 | 0.868 | 0.892 | 0.757 | 0.683 | 0.679
11 | NCI-H1734 | 0.39 | 0.321 | 0.333 | 0.429 | 0.34 | 0.53 | 0.435 | 0.468 | 0.452 | 0.447 | 0.845 | 0.626 | 0.708 | 0.703 | 0.559 | 0.469
12 | NCI-H1755 | 0.421 | 0.474 | 0.48 | 0.417 | 0.45 | 0.523 | 0.376 | 0.424 | 0.457 | 0.473 | 0.981 | 0.91 | 0.83 | 0.918 | 0.865 | 0.849
13 | NCI-H1792 | 0.688 |  | 0.653 | 0.708 | 0.698 | 0.288 |  | 0.288 | 0.287 | 0.224 | 0.629 | 0.445 | 0.34 | 0.402 | 0.274 | 0.189
14 | NCI-H1793 | 0.222 |  | 0.279 | 0.296 | 0.388 | 0.402 | 0.276 | 0.34 | 0.258 | 0.389 | 0.585 | 0.491 | 0.578 | 0.791 | 0.574 | 0.692
15 | NCI-H1915 | 0.54 | 0.523 | 0.518 | 0.539 | 0.538 | 0.919 | 0.827 | 0.878 | 0.917 | 0.615 | 1.09 | 1.03 | 1.02 | 0.266 | 0.263 | 0.269
16 | NCI-H1944 | 0.336 | 0.339 | 0.34 | 0.333 | 0.333 | 0.283 | 0.299 | 0.313 | 0.368 | 0.325 | 0.802 | 0.837 | 0.738 | 0.407 | 0.39 | 0.396
17 | NCI-H1975 | 0.614 | 0.453 | 0.581 | 0.549 | 0.553 | 0.321 | 0.259 | 0.261 | 0.324 | 0.211 | 0.616 | 0.581 | 0.594 | 1.02 | 0.762 | 0.875
18 | NCI-H1993 | 0.636 | 0.633 | 0.611 | 0.552 | 0.583 |  | 0.956 | 0.686 | 0.743 | 0.897 | 0.707 | 0.674 | 0.77 | 1.1 | 0.843 | 0.954
